Our source for the IC50 values is patent US20260234130A1, “EP2 Antagonist Compounds” (Reservoir Neuroscience, Inc., priority 2022, published 2026).

A value given as a limit tells only on which side of the number the result lay.

What is called IC50 is the concentration that inhibits the measured activity by half.

This assay deals with T1, EP2 receptor (Homo sapiens, UniProt P43116).
T1 construct: expressed in transfected cells; host or cells: CHO-K1 cells (ATCC), transient transfection with FuGENE 6
T1 sequence (P43116 whole entry): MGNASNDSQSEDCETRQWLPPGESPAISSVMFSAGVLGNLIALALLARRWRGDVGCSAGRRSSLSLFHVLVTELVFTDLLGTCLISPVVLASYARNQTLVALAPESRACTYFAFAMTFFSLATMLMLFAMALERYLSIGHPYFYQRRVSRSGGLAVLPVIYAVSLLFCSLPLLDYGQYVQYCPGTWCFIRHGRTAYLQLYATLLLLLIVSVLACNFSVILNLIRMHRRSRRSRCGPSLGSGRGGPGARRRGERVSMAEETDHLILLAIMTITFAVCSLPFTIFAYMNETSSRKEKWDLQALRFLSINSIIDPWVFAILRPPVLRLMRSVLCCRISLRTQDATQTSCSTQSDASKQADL
The experiment in a line: EP2 potency assay (cAMP TR-FRET, LANCE Ultra cAMP kit) in transfected CHO-K1 cells stimulated with PGE2 at EC80. In kind it is cell-based. The note with it: Table (V), EP2 antagonism, CHO-K1 cells expressing EP2, PGE2 at EC80. As to the method:
Compound potency was measured using a cAMP TR-FRET assay. CHO-K1 cells (ATCC) were seeded at a density of 9.75×105 in 6 cm plates, and then on the following day cell media was changed to Opti-Mem I reduced serum media (Gibco), and transfected with a plasmid for expression of the EP2 receptor (the target receptor of interest), using the FuGENE 6 Transfection reagent (Promega). After 6 hours incubation, the cell media was replaced with F12 medium supplemented with 10% FBS and 100 U/ml Pen-Strep. 24 hours after transfection, cells were harvested and seeded at a density of 3000 cells/well in a 384 well plate to perform the cAMP assay, using the LANCE Ultra cAMP assay kit (PerkinElmer). For each test compound of interest, 10 nl/well of serially diluted test compound was added to each well, resulting in a range of 10 serially diluted compound concentrations from 10000 nM to 0.038 nM, with duplicate wells for each concentration. Plates were then centrifuged at 1000 rpm for 1 min, agitated at 600 rpm at R.T. for 2 min, and incubated at 25° C. for 5 min. The reference agonist, prostaglandin E2 (MCE), was added to each well at the appropriate concentration to reach its EC80 value. Plates were then centrifuged at 1000 rpm for 1 min, agitated at 600 rpm at R.T. for 2 min, and incubated at 25° C. for 30 min. To measure levels of cAMP, 5 μl/well of Eu-cAMP working solution and 5 μl/well of Ulight-anti-cAMP working solution were added to each well, and the plate was centrifuged at 1000 rpm for 1 min, agitated at 600 rpm at R.T. for 2 min, and incubated at 25° C. for 15 min. Levels of TR-FRET fluorescence were measured in each well using an EnVision microplate reader (excitation wavelength=337 nm and emission wavelength=615 and 665 nm). A dose-response curve was prepared by plotting percent inhibition for each compound concentration, and then IC50 was calculated by fitting a curve to the plotted values and extrapolating the IC50 concentration. […] Potency data is grouped into categories of AA (IC50<100 nM); A (IC50=100 to 500 nM); B (IC50=500 nM to […]); C (IC50=1 μM to 5 μM); and D (IC50>5 μM).
On the technique in general: Time-resolved FRET reads energy transfer from a long-lived donor to a nearby acceptor.
`Nc1ncc(CN2CCOc3c(Cl)cc(-n4ccc5cc(F)ccc54)cc3C2)c(=O)[nH]1` [II-16, 2-amino-5-((9-chloro-7-(5-fluoro-1H-indol-1-yl)-2,3-dihydrobenzo[f][1,4]oxazepin-4(5H)-yl)methyl)pyrimidin-4(3H)-one] came in with an IC50 of over 5000 nM.

With `N#CCc1ncc(CN2CCOc3c(Cl)cc(-n4ccc5cc(F)ccc54)cc3C2)cn1` [II-17, 2-(5-((9-chloro-7-(5-fluoro-1H-indol-1-yl)-2,3-dihydrobenzo[f][1,4]oxazepin-4(5H)-yl)methyl)pyrimidin-2-yl)acetonitrile], the IC50 fell in the range of 100 to 500 nM. The figure for `COC(=O)c1ccc(CN2CCOc3c(Cl)cc(-n4ccc5cc(F)ccc54)cc3C2)cn1` [II-19, methyl 5-((9-chloro-7-(5-fluoro-1H-indol-1-yl)-2,3-dihydrobenzo[f][1,4]oxazepin-4(5H)-yl)methyl)picolinate] is 100 to 500 nM; for `COCCc1ncc(CN2CCOc3c(Cl)cc(-n4ccc5cc(F)ccc54)cc3C2)cn1` [II-20, 9-chloro-7-(5-fluoro-1H-indol-1-yl)-4-((2-(2-methoxyethyl)pyrimidin-5-yl)methyl)-2,3,4,5-tetrahydrobenzo[f][1,4]oxazepine] it is 500 to 1000 nM; for `Fc1ccc2c(ccn2-c2cc(Cl)c3c(c2)CN(Cc2cnc(C4CC4)nc2)CCO3)c1` [II-21, 9-chloro-4-((2-cyclopropylpyrimidin-5-yl)methyl)-7-(5-fluoro-1H-indol-1-yl)-2,3,4,5-tetrahydrobenzo[f][1,4]oxazepine] it is 500 to 1000 nM.

Compound `Fc1ccc2c(ccn2-c2cc(Cl)c3c(c2)CN(Cc2cnc(-c4nnn[nH]4)nc2)CCO3)c1` [II-22, 4-((2-(1H-tetrazol-5-yl)pyrimidin-5-yl)methyl)-9-chloro-7-(5-fluoro-1H-indol-1-yl)-2,3,4,5-tetrahydrobenzo[f][1,4]oxazepine] gave a concentration for half-maximal inhibition (IC50) of under 100 nM. As for `Nc1cc(CN2CCOc3c(Cl)cc(-n4ccc5cc(F)ccc54)cc3C2)cnn1` [II-23, 5-((9-chloro-7-(5-fluoro-1H-indol-1-yl)-2,3-dihydrobenzo[f][1,4]oxazepin-4(5H)-yl)methyl)pyridazin-3-amine], the half-maximal inhibitory concentration (IC50) lay within 500 to 1000 nM. With `Cc1nc(=O)[nH]c(C)c1CN1CCOc2c(Cl)cc(-n3ccc4cc(F)ccc43)cc2C1` [II-24, 5-((9-chloro-7-(5-fluoro-1H-indol-1-yl)-2,3-dihydrobenzo[f][1,4]oxazepin-4(5H)-yl)methyl)-4,6-dimethylpyrimidin-2(1H)-one] the figure was 500 to 1000 nM; with `CS(=O)(=O)NC(=O)c1ncc(CN2CCOc3c(Cl)cc(-n4ccc5cc(F)ccc54)cc3C2)cn1` [II-25, 5-((9-chloro-7-(5-fluoro-1H-indol-1-yl)-2,3-dihydrobenzo[f][1,4]oxazepin-4(5H)-yl)methyl)-N-(methylsulfonyl)pyrimidine-2-carboxamide], under 100 nM. The figure for `Fc1ccc2c(ccn2-c2cc(Cl)c3c(c2)CN(Cc2cnc(C4=NCCN4)nc2)CCO3)c1` [II-26, 9-chloro-4-((2-(4,5-dihydro-1H-imidazol-2-yl)pyrimidin-5-yl)methyl)-7-(5-fluoro-1H-indol-1-yl)-2,3,4,5-tetrahydrobenzo[f][1,4]oxazepine] is over 5000 nM; for `Fc1ccc2c(ccn2-c2cc(Cl)c3c(c2)CN(Cc2cnc4[nH]ccc4c2)CCO3)c1` [II-27, 4-((1H-pyrrolo[2,3-b]pyridin-5-yl)methyl)-9-chloro-7-(5-fluoro-1H-indol-1-yl)-2,3,4,5-tetrahydrobenzo[f][1,4]oxazepine] it is 100 to 500 nM; for `Cc1nc(Cl)nc(C)c1CN1CCOc2c(Cl)cc(-n3ccc4cc(F)ccc43)cc2C1` [II-28, 9-chloro-4-((2-chloro-4,6-dimethylpyrimidin-5-yl)methyl)-7-(5-fluoro-1H-indol-1-yl)-2,3,4,5-tetrahydrobenzo[f][1,4]oxazepine] it is 1000 to 5000 nM.

For the compound `COc1ncncc1CN1CCOc2c(Cl)cc(-n3ccc4cc(F)ccc43)cc2C1` [II-29, 9-chloro-7-(5-fluoro-1H-indol-1-yl)-4-((4-methoxypyrimidin-5-yl)methyl)-2,3,4,5-tetrahydrobenzo[f][1,4]oxazepine], the IC50 was 500 to 1000 nM. With `Fc1ccc2c(ccn2-c2cc(Cl)c3c(c2)CN(Cc2cnc4[nH]ncc4c2)CCO3)c1` [II-31, 4-((1H-pyrazolo[3,4-b]pyridin-5-yl)methyl)-9-chloro-7-(5-fluoro-1H-indol-1-yl)-2,3,4,5-tetrahydrobenzo[f][1,4]oxazepine] the figure was 1000 to 5000 nM; with `Cn1ncc(CN2CCOc3c(Cl)cc(-n4ccc5cc(F)ccc54)cc3C2)cc1=O` [II-32, 5-((9-chloro-7-(5-fluoro-1H-indol-1-yl)-2,3-dihydrobenzo[f][1,4]oxazepin-4(5H)-yl)methyl)-2-methylpyridazin-3(2H)-one], 100 to 500 nM; with `COc1ncc(CN2CCOc3c(Cl)cc(-n4ncc5cc(F)ccc54)cc3C2)cn1` [II-33, 9-chloro-7-(5-fluoro-1H-indazol-1-yl)-4-((2-methoxypyrimidin-5-yl)methyl)-2,3,4,5-tetrahydrobenzo[f][1,4]oxazepine], under 100 nM.

`Nc1ncc(CN2CCOc3c(Cl)cc(-n4ccc5c(F)c(F)ccc54)cc3C2)cn1` [II-36, 5-((9-chloro-7-(4,5-difluoro-1H-indol-1-yl)-2,3-dihydrobenzo[f][1,4]oxazepin-4(5H)-yl)methyl)pyrimidin-2-amine] displayed an IC50 of under 100 nM. With `O=c1ncc(CN2CCOc3c(Cl)cc(-c4coc5cc(F)ccc45)cc3C2)c[nH]1` [II-38, 5-((9-chloro-7-(6-fluorobenzofuran-3-yl)-2,3-dihydrobenzo[f][1,4]oxazepin-4(5H)-yl)methyl)pyrimidin-2(1H)-one] the figure was under 100 nM; with `COc1ncc(CN2CCOc3c(Cl)cc(-c4coc5c(F)c(F)ccc45)cc3C2)cn1` [II-39, 9-chloro-7-(6,7-difluorobenzofuran-3-yl)-4-((2-methoxypyrimidin-5-yl)methyl)-2,3,4,5-tetrahydrobenzo[f][1,4]oxazepine], 100 to 500 nM; with `O=C(O)c1ncc(CN2CCOc3c(Cl)cc(-n4ccc5c(F)c(F)ccc54)cc3C2)cn1` [II-41, 5-((9-chloro-7-(4,5-difluoro-1H-indol-1-yl)-2,3-dihydrobenzo[f][1,4]oxazepin-4(5H)-yl)methyl)pyrimidine-2-carboxylic acid], under 100 nM.

For `Fc1ccc2c(ccn2-c2cc(Cl)c3c(c2)CN(Cc2cnc(-c4nnn[nH]4)nc2)CCO3)c1F` [II-42, 4-((2-(1H-tetrazol-5-yl)pyrimidin-5-yl)methyl)-9-chloro-7-(4,5-difluoro-1H-indol-1-yl)-2,3,4,5-tetrahydrobenzo[f][1,4]oxazepine], the IC50 was under 100 nM. With `Fc1ccc2c(-c3cc(Cl)c4c(c3)CN(Cc3cnc(-c5nnn[nH]5)nc3)CCO4)coc2c1` [II-43, 4-((2-(1H-tetrazol-5-yl)pyrimidin-5-yl)methyl)-9-chloro-7-(6-fluorobenzofuran-3-yl)-2,3,4,5-tetrahydrobenzo[f][1,4]oxazepine] the figure was under 100 nM; with `O=c1ncc(CN2CCOc3c(Cl)cc(-n4ncc5cc(F)ccc54)cc3C2)c[nH]1` [II-44, 5-((9-chloro-7-(5-fluoro-1H-indazol-1-yl)-2,3-dihydrobenzofuran[f][1,4]oxazepin-4(5H)-yl)methyl)pyrimidin-2(1H)-one], under 100 nM. With `COc1ncc(CN2CCOc3c(Cl)cc(-c4csc5cc(F)ccc45)cc3C2)cn1` [II-46, 9-chloro-7-(6-fluorobenzo[b]thiophen-3-yl)-4-((2-methoxypyrimidin-5-yl)methyl)-2,3,4,5-tetrahydrobenzo[f][1,4]oxazepine] the figure was 100 to 500 nM; with `O=c1ncc(CN2CCOc3c(Cl)cc(-c4csc5cc(F)ccc45)cc3C2)c[nH]1` [II-47, 5-((9-chloro-7-(6-fluorobenzo[b]thiophen-3-yl)-2,3-dihydrobenzo[f][1,4]oxazepin-4(5H)-yl)methyl)pyrimidin-2(1H)-one], under 100 nM. With `COc1ncc(CN2CCOc3c(Cl)cc(-c4coc5cc(F)ccc45)cc3C2)cn1` [II-48, 9-chloro-7-(6-fluorobenzofuran-3-yl)-4-((2-methoxypyrimidin-5-yl)methyl)-2,3,4,5-tetrahydrobenzo[f][1,4]oxazepine] the figure was under 100 nM. `COc1ncc(CN2CCOc3c(Cl)cc(-n4cnc5cc(F)ccc54)cc3C2)cn1` [II-49, 9-chloro-7-(5-fluoro-1H-benzo[d]imidazol-1-yl)-4-((2-methoxypyrimidin-5-yl)methyl)-2,3,4,5-tetrahydrobenzo[f][1,4]oxazepine] gave an IC50 of 500 to 1000 nM.
